PubChem BioAssay AID256 (DTP/NCI, 2004)
Values joined by “and” are separate entries in the source; they are usually repeats but may differ in a detail not shown here. Identical values can stand only once. Toxic doses and inconclusive results are not listed. The calls were made as follows: active = survival T/C of 150% or more; inactive = T/C below 125% in these data.

Tested on: CD2F1 mice, L1210 leukemia ip, survival T/C
Experiment: NCI In Vivo Anticancer Drug Screen. Data for tumor model L1210 Leukemia (intraperitoneal) in CD2F1 (CDF1) mice
Details: higher = longer survival
Summary of the method: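 Mice carrying a transplanted tumor received test compound or vehicle alone. The value is the measurement in the treated group divided by that in the vehicle-treated control group.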

[1] = endpoint: mean survival time, dose: 100.0 mg/kg/injection, schedule: Q01DX009 (ip), vehicle: saline with Tween-80
[2] = endpoint: mean survival time, dose: 200.0 mg/kg/injection, schedule: Q01DX009 (ip), vehicle: saline with Tween-80
[3] = endpoint: mean survival time, dose: 100.0 mg/kg/injection, schedule: Q01DX001 (ip), vehicle: saline
[4] = endpoint: mean survival time, dose: 200.0 mg/kg/injection, schedule: Q01DX001 (ip), vehicle: saline
[5] = endpoint: mean survival time, dose: 400.0 mg/kg/injection, schedule: Q01DX001 (ip), vehicle: saline

Measured: T/C

Cc1ccc(Nc2ncnc3c2ncn3C2OC(CO)C(O)C2O)cc1 (stereo unspecified)
inactive: endpoint: mean survival time, dose: 12.5 mg/kg/injection, schedule: Q01DX005 (ip), vehicle: distilled water + Tween-80 94 % of control | endpoint: mean survival time, dose: 25.0 mg/kg/injection, schedule: Q01DX005 (ip), vehicle: distilled water + Tween-80 94 % of control | endpoint: mean survival time, dose: 50.0 mg/kg/injection, schedule: Q01DX005 (ip), vehicle: distilled water + Tween-80 94 % of control | endpoint: mean survival time, dose: 100.0 mg/kg/injection, schedule: Q01DX005 (ip), vehicle: distilled water + Tween-80 96 % of control | endpoint: mean survival time, dose: 200.0 mg/kg/injection, schedule: Q01DX005 (ip), vehicle: distilled water + Tween-80 94 % of control

Cc1nc(N)n[nH]1
inactive: [1] 92 % of control | endpoint: mean survival time, dose: 100.0 mg/kg/injection, schedule: Q04DX003 (ip), vehicle: saline 102 % of control | [2] 97 % of control | endpoint: mean survival time, dose: 200.0 mg/kg/injection, schedule: Q04DX003 (ip), vehicle: saline 100 % of control | endpoint: mean survival time, dose: 400.0 mg/kg/injection, schedule: Q01DX009 (ip), vehicle: saline with Tween-80 88 % of control | endpoint: mean survival time, dose: 400.0 mg/kg/injection, schedule: Q04DX003 (ip), vehicle: saline 96 % of control

Cc1nc(C)c2c(n1)Oc1ccc3ccccc3c1C2
inactive: [3] 97 % of control | [4] 97 % of control | [5] 97 % of control

COc1nc(NC2OCC(O)C(O)C2O)cc(=O)n1C (stereo unspecified)
inactive: endpoint: median survival time, dose: 12.5 mg/kg/injection, schedule: Q01DX005 (ip), vehicle: saline 102 % of control | endpoint: median survival time, dose: 25.0 mg/kg/injection, schedule: Q01DX005 (ip), vehicle: saline 101 % of control | endpoint: median survival time, dose: 50.0 mg/kg/injection, schedule: Q01DX005 (ip), vehicle: saline 100 % of control | endpoint: median survival time, dose: 100.0 mg/kg/injection, schedule: Q01DX005 (ip), vehicle: saline 105 % of control | endpoint: median survival time, dose: 200.0 mg/kg/injection, schedule: Q01DX005 (ip), vehicle: saline 98 % of control

CC(=O)OC1=NC(C)c2c1cc(OC(C)=O)[nH]c2=O (stereo unspecified)
inactive: endpoint: mean survival time, dose: 6.25 mg/kg/injection, schedule: Q01DX009 (ip), vehicle: Klucel (hydroxypropylcellulose) (HPC) 104 % of control and 107 % of control | endpoint: mean survival time, dose: 12.5 mg/kg/injection, schedule: Q01DX009 (ip), vehicle: Klucel (hydroxypropylcellulose) (HPC) 101 % of control and 106 % of control | endpoint: mean survival time, dose: 25.0 mg/kg/injection, schedule: Q01DX009 (ip), vehicle: Klucel (hydroxypropylcellulose) (HPC) 104 % of control and 110 % of control | endpoint: mean survival time, dose: 50.0 mg/kg/injection, schedule: Q01DX009 (ip), vehicle: Klucel (hydroxypropylcellulose) (HPC) 100 % of control and 101 % of control | endpoint: mean survival time, dose: 100.0 mg/kg/injection, schedule: Q01DX009 (ip), vehicle: Klucel (hydroxypropylcellulose) (HPC) 113 % of control and 102 % of control

O=C(/C=C/c1ccco1)c1ccc2ccccc2c1
inactive: [3] 102 % of control | [4] 94 % of control | [5] 94 % of control

Nc1nc2c([nH]c(=S)n2C2OC(CO)C(O)C2O)c(=O)[nH]1 (stereo unspecified)
inactive: endpoint: mean survival time, dose: 100.0 mg/kg/injection, schedule: Q04DX002 (ip), vehicle: saline with Tween-80 100 % of control | endpoint: mean survival time, dose: 200.0 mg/kg/injection, schedule: Q04DX002 (ip), vehicle: saline with Tween-80 97 % of control | endpoint: mean survival time, dose: 400.0 mg/kg/injection, schedule: Q04DX002 (ip), vehicle: saline with Tween-80 97 % of control

Cn1nc2ccccc2n1
inactive: endpoint: mean survival time, dose: 118.0 mg/kg/injection, schedule: Q04DX003 (ip), vehicle: saline with Tween-80 104 % of control | endpoint: mean survival time, dose: 178.0 mg/kg/injection, schedule: Q04DX003 (ip), vehicle: saline with Tween-80 98 % of control | endpoint: mean survival time, dose: 266.0 mg/kg/injection, schedule: Q04DX003 (ip), vehicle: saline with Tween-80 109 % of control | endpoint: mean survival time, dose: 400.0 mg/kg/injection, schedule: Q04DX003 (ip), vehicle: saline with Tween-80 96 % of control

COc1ccc(NC(=S)/C(=C(\[O-])c2ccc([N+](=O)[O-])cc2)[n+]2ccc(C(C)C)cc2)cc1
inactive: [1] 91 % of control | [2] 97 % of control
